How the values were obtained:
[1] = test system: peripheral blood mononuclear cells (PBMCs); experiment: MTT cell viability assay, PBMCs; conditions: for cytotoxicity towards PBMCs (in words): MTT, normal cells; for IC50: PBMC, 48 h, read-out: IC50 (µM) PBMCs
Method: (§2) In experiments, K562 cells and PBMCs were cultured in 24-well and 96-well plates (Asahi Glass Co., Chiba, Japan) at 4 × 10^4 and 1 × 10^6 cells/mL concentrations, respectively, for 48 h. A549 cells were plated (24-well plate) at 1 × 10^4 cells/mL and incubated for 72 h (the optimal cell number was determined in our previous studies) [34, 35, 36]. The stock solutions of the compounds and erlotinib in concentrations ranging from 1 µM to 10 mM were prepared in DMSO (Wako Pure Chemical Industries, Osaka, Japan) and further diluted with fresh culture medium. The final DMSO concentration was adjusted as 1%, which had no effect on the cell viability [37].
(§3) Then, supernatants were discarded, and the formazan crystals were solubilized with a 100 μL DMSO addition. The absorbance of the solution was measured using an Infinite M1000 microplate reader (Tecan, Grödig, Austria) at a wavelength of 570 and 630 nm.

[2] = test system: A549 human lung adenocarcinoma cells; experiment: MTT cell viability assay, A549 cells; conditions: A549, 72 h, read-out: IC50 (µM) A549 Cells
Method: as §2, §3

[3] = test system: K562 chronic myelogenous leukemia (CML) cells; experiment: MTT cell viability assay, K562 cells; conditions: Homo sapiens, K562, 48 h, read-out: IC50 (µM) K562 Cells
Method: as §2, §3

EGFR TK = molecular target: T1, EGFR TK (Homo sapiens, UniProt P00533); experiment: EGFR TK inhibition, kinase profiling / ADP-Glo Kinase Assay; assay type: biochemical; conditions: 4 h incubation at room temperature
T1 construct: purchased Promega Corporation
T1 sequence (P00533 25-1210): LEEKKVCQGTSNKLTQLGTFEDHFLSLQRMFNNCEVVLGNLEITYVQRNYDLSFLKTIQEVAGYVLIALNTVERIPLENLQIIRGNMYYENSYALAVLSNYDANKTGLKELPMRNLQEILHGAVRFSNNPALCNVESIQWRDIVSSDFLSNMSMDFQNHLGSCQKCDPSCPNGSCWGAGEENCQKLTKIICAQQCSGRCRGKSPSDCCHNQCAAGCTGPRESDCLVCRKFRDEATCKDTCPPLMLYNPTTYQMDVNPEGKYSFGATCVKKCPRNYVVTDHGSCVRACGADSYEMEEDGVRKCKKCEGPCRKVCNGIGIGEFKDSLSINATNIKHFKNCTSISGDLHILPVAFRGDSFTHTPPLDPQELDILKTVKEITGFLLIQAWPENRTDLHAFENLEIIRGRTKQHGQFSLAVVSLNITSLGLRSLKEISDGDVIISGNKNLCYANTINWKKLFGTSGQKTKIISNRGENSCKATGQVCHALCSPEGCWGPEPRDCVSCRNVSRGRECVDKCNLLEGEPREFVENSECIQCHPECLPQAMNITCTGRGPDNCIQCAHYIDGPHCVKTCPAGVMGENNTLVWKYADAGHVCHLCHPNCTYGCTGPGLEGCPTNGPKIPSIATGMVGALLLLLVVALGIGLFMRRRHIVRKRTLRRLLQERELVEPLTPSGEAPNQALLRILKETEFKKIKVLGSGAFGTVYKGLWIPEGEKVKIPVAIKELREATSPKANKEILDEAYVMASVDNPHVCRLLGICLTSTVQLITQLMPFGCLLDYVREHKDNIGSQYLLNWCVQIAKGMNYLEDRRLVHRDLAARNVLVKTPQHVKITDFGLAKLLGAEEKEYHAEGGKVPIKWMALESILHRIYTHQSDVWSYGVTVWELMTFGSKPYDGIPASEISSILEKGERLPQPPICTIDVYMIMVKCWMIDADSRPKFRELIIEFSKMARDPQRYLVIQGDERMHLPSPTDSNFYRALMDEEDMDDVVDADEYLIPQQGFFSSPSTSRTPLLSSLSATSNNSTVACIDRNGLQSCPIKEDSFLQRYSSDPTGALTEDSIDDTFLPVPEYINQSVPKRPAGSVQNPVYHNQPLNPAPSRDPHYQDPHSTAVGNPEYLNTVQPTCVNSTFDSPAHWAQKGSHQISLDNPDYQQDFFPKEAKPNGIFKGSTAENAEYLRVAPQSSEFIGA
Method: Manufacturer′s instructions (Promega Corporation, Madison, WI, USA) were applied for the kinase profiling assay protocol (TK-1 and TK-2) with small changes [40, 41, 42]. […] The kinase working stocks (2 µL), 2 µL of the ATP/substrate working stocks, and 1 µL of the tested compound solution (3–100 µM) and erlotinib solution (0.01–100 µM) or 5% DMSO solution in the 384-well plate were used for the kinase reactions. Following the 4 h of incubation at room temperature, the activity of kinases was screened by means of the ADP-Glo Kinase Assay (Promega Corporation, Madison, WI, USA) based on the manufacturer′s protocol. The Infinite M1000 microplate reader (Tecan, Grödig, Austria) was used to measure the kinase inhibitory effects of the compounds in a dose-response manner. Besides, the IC50 values of the tested compounds were determined using ImageJ software.

LCK = molecular target: T2, LCK (Homo sapiens, UniProt P06239); experiment: Kinase selectivity profiling TK-2, LCK; assay type: biochemical; conditions: 30 µM concentration
T2 construct: purchased Promega Corporation
T2 sequence (P06239 whole entry): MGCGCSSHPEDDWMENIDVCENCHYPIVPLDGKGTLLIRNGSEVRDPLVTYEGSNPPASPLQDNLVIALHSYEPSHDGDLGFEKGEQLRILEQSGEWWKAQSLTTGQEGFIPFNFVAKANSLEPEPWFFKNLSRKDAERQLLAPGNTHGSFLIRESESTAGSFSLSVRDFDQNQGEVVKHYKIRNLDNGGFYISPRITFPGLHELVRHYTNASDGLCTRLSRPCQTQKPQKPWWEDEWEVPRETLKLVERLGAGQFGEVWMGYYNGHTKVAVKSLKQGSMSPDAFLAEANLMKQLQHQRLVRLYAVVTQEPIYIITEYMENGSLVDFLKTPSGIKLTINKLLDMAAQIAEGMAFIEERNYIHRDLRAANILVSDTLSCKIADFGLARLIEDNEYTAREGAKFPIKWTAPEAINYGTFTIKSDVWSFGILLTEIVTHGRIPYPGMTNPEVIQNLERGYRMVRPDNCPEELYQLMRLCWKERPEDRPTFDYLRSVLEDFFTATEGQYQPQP
Method: (§1) Manufacturer′s instructions (Promega Corporation, Madison, WI, USA) were applied for the kinase profiling assay protocol (TK-1 and TK-2) with small changes. According to this protocol, the kinase stocks in the kinase strips and their substrate stocks in the substrate strips were diluted with 95 µL of 2.5× kinase buffer and 15 µL of 100 µM ATP solutions, respectively. The kinase working stocks (2 µL), 2 µL of the ATP/substrate working stocks, and 1 µL of the tested compound solution (3–100 µM) and erlotinib solution (0.01–100 µM) or 5% DMSO solution in the 384-well plate were used for the kinase reactions. Following the 4 h of incubation at room temperature, the activity of kinases was screened by means of the ADP-Glo Kinase Assay (Promega Corporation, Madison, WI, USA) based on the manufacturer′s protocol. The Infinite M1000 microplate reader (Tecan, Grödig, Austria) was used to measure the kinase inhibitory effects of the compounds in a dose-response manner. Besides, the IC50 values of the tested compounds were determined using ImageJ software.

A549 cells = experiment: Annexin V/ethidium homodimer III staining assay (apoptosis); assay type: cell-based, human; conditions: IC50 concentrations, 15 h
Method: Then, an apoptotic/necrotic cell detection kit (PromoKine, Heidelberg, Germany) was used according to manufacturer′s instructions with some modifications. Briefly, the cells were washed twice with 1× binding buffer, a staining solution containing 50 μL of 1× binding buffer, 5 μL of FITC-Annexin V solution, and 5 μL of ethidium homodimer III solution, and treated for 30 min at room temperature in a protected-light environment. After washing of cells in 1× binding buffer, cells were analyzed under a Biorevo BZ-9000 all-in-one fluorescence microscope (Keyence, Osaka, Japan). The number of apoptotic cells, late apoptotic or necrotic cells, and necrotic cells was quantified as previously described.

HER2 = molecular target: T3, HER2 (Homo sapiens, UniProt P04626); experiment: Kinase selectivity profiling TK-1, HER2; assay type: biochemical; conditions: 30 µM concentration
T3 construct: purchased Promega Corporation
T3 sequence (P04626 23-1255): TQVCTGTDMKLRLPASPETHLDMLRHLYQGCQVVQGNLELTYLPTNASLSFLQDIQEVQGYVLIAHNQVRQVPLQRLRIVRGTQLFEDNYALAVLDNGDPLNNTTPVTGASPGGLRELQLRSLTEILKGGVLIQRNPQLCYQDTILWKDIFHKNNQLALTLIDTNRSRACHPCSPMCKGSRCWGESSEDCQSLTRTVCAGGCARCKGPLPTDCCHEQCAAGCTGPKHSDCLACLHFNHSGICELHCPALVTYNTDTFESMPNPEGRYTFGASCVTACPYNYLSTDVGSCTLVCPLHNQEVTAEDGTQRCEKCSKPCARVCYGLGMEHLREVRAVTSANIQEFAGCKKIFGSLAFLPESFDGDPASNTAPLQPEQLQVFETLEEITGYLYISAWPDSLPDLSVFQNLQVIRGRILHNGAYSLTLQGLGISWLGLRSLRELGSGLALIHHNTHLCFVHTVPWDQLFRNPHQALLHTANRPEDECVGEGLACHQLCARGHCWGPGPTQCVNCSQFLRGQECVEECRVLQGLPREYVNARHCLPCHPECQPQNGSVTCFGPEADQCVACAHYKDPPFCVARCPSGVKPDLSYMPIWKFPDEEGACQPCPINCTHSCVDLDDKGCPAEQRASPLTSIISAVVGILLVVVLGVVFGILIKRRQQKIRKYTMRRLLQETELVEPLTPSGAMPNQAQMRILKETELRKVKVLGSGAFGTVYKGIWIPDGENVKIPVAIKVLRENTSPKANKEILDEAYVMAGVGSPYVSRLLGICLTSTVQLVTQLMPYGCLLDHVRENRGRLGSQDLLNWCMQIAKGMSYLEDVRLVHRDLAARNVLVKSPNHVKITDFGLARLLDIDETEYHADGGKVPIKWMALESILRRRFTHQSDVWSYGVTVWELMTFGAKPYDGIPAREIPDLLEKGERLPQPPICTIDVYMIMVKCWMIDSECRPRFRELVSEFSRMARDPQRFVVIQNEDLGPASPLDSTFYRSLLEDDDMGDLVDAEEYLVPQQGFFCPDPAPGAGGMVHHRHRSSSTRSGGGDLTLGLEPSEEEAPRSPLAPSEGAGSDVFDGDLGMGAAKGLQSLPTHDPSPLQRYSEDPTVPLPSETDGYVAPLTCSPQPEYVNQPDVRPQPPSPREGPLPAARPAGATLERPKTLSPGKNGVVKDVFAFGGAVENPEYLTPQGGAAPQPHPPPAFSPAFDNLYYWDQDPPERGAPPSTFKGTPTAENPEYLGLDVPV
Method: as §1

SMILES	IC50 [2] [µM]	IC50 [3] [µM]	IC50 (EGFR TK) [µM]	melting point [°C]	LCK inhibition compared to erlotinib (LCK)	HER2 inhibition compared to erlotinib (HER2)	cytotoxicity towards PBMCs (in words) [1]	IC50 [1] [µM]	percentage of A549 cells undergoing apoptosis (A549 cells) [%]
COc1cc2c(cc1Cl)Cc1c-2nn(-c2ccccc2)c1-c1ccc(N2CCCCC2)cc1 [Compound 1, 6-Chloro-7-methoxy-2-phenyl-3-[4-(piperidin-1-yl)phenyl]-2,4-dihydroindeno[1,2-c]pyrazole]	7.99 ± 1.84	3.49 ± 0.92	55.3 ± 8.68				no significant cytotoxicity	95.7 ± 11.7	
COc1cc2c(cc1Cl)Cc1c-2nn(-c2ccc(F)cc2)c1-c1ccc(N2CCCCC2)cc1 [Compound 2, 6-Chloro-7-methoxy-2-(4-fluorophenyl)-3-[4-(piperidin-1-yl)phenyl]-2,4-dihydroindeno[1,2-c]pyrazole]	> 10			188 to 190					
COc1cc2c(cc1Cl)Cc1c-2nn(-c2ccc(S(C)(=O)=O)cc2)c1-c1ccc(N2CCCCC2)cc1 [Compound 6, 6-Chloro-7-methoxy-2-(4-(methylsulfonyl)phenyl)-3-[4-(piperidin-1-yl)phenyl]-2,4-dihydroindeno[1,2-c]pyrazole]	> 10			116 to 117					
C#Cc1cccc(Nc2ncnc3cc(OCCOC)c(OCCOC)cc23)c1 [Erlotinib, reference compound]	19.7 ± 3.15	29.6 ± 5.26						44.3 ± 7.84	53.60

More lines, main results first:

IC50 [2] [µM]	IC50 [3] [µM]	IC50 (EGFR TK) [µM]	melting point [°C]	LCK inhibition compared to erlotinib (LCK)	HER2 inhibition compared to erlotinib (HER2)	SMILES	cytotoxicity towards PBMCs (in words) [1]	IC50 [1] [µM]	percentage of A549 cells undergoing apoptosis (A549 cells) [%]
> 10						COc1cc2c(cc1Cl)Cc1c-2nn(-c2ccc(Cl)cc2)c1-c1ccc(N2CCCCC2)cc1 [Compound 3, 6-Chloro-7-methoxy-2-(4-chlorophenyl)-3-[4-(piperidin-1-yl)phenyl]-2,4-dihydroindeno[1,2-c]pyrazole]			
6.13 ± 1.42	2.65 ± 0.75	17.6	125 to 126	more significantly than erlotinib	more significantly than erlotinib	COc1cc2c(cc1Cl)Cc1c-2nn(-c2ccc(Br)cc2)c1-c1ccc(N2CCCCC2)cc1 [Compound 4, 6-Chloro-7-methoxy-2-(4-bromophenyl)-3-[4-(piperidin-1-yl)phenyl]-2,4-dihydroindeno[1,2-c]pyrazole]	no significant cytotoxicity	19.6 ± 4.25	56.30
> 10						COc1cc2c(cc1Cl)Cc1c-2nn(-c2ccc(C#N)cc2)c1-c1ccc(N2CCCCC2)cc1 [Compound 5, 6-Chloro-7-methoxy-2-(4-cyanophenyl)-3-[4-(piperidin-1-yl)phenyl]-2,4-dihydroindeno[1,2-c]pyrazole]			
8.67 ± 2.18	2.76 ± 0.83	46.7 ± 7.04	123 to 124			COc1cc2c(cc1Cl)Cc1c-2nn(-c2ccc(C)cc2)c1-c1ccc(N2CCCCC2)cc1 [Compound 7, 6-Chloro-7-methoxy-2-(4-methylphenyl)-3-[4-(piperidin-1-yl)phenyl]-2,4-dihydroindeno[1,2-c]pyrazole]	no significant cytotoxicity	> 100	

From publication PMC8778314, “A New Series of Indeno[1,2-c]pyrazoles as EGFR TK Inhibitors for NSCLC Therapy” (Molecules, 2022)
